# pIC50: −log10 of the molar value.
# Columns and labels:
# HCT116 [1] = assay: viability inhibition vs untreated; higher = more cytotoxic; settings: 72 h
# HCT116 [2] = settings: 72 h
# Description: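 HCT116 control and MTA1-KO (CRISPR) HCT116 cells were seeded in 384-well plates (800 cells/well), treated 16 h later with 237 metabolism-related anticancer drugs at five doses (10 uM, 2 uM, 400 nM, 80 nM, 16 nM) for 72 h, two replicates; viability by CCK8. Values are % inhibition of viability relative to untreated cells, plus fitted IC50.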
Compound,"viability inhibition (HCT116 [1]; genotype: MTA1-KO, 16 nM) [%]","viability inhibition (HCT116 [1]; genotype: MTA1-KO, 80 nM) [%]","viability inhibition (HCT116 [1]; genotype: MTA1-KO, 400 nM) [%]","viability inhibition (HCT116 [1]; genotype: MTA1-KO, 2000 nM) [%]","viability inhibition (HCT116 [1]; genotype: MTA1-KO, 10000 nM) [%]","viability inhibition (HCT116 [1]; genotype: control, 16 nM) [%]","viability inhibition (HCT116 [1]; genotype: control, 80 nM) [%]","viability inhibition (HCT116 [1]; genotype: control, 400 nM) [%]","viability inhibition (HCT116 [1]; genotype: control, 2000 nM) [%]","viability inhibition (HCT116 [1]; genotype: control, 10000 nM) [%]",pIC50 (HCT116 [2]; genotype: MTA1-KO),pIC50 (HCT116 [2]; genotype: control)
CC(=NNC(=S)N1CCC1)c1ccccn1,113,110,111,108,107,107,110,95.8,105,111,> 7.80,> 7.80
CC(C)(C#N)c1ccc(N2C(=O)OCc3cnc4ccc(-c5cnc6ccccc6c5)cc4c32)cc1,-21.1,-19.6,-26.7,-3.23,30.7,8.09,-11.9,-11.4,-0.304,45.6,< 5.00,< 5.00
CCCC[S+]([O-])c1sc2nc(-c3cccs3)cc(-c3ccccc3)c2c1N (stereo not drawn),13.3,12.3,5.6,9.12,41.9,5.17,3.85,2.26,4.74,8.23,< 5.00,< 5.00
CCc1ccc(/C=C2/SC(=S)NC2=O)cc1,-4.9,-10,-9.11,-3.79,1.27,7.22,4.14,13,9.23,12.7,< 5.00,< 5.00
CN1CCN(C(=O)/C=C/c2ccc([N+](=O)[O-])o2)CC1,-10.2,-18.9,-24,-18.6,19.7,0.552,-3.92,-15.2,-0.064,11,< 5.00,< 5.00
CN1CCN(C(=O)COc2ccc(C34CC5CC(CC(C5)C3)C4)cc2)CC1,0.53,0.971,2.4,3.12,55.4,-2.5,-2.81,-1.07,-8.95,7.86,5.03,< 5.00
CO[C@@H](C)Cn1c(=O)n(C)c2cnc3ccc(-c4cncc(C(C)(C)O)c4)cc3c21,-8.01,27.7,58.8,90.6,102,-0.225,-9.63,58.5,90.9,104,6.54,6.42
COc1ccc(-c2ccc3c(N4CCOCC4)nc(N4C[C@@H](C)O[C@@H](C)C4)nc3n2)cc1CO,14.6,18.1,36.5,68.5,82.3,13.2,20.4,21.5,59.4,72.9,6.12,5.65
COc1ccc(-c2ccccc2)cc1NS(=O)(=O)c1cc(Cl)cc(Cl)c1O,4.57,-1.5,-3.79,-1.98,8.72,-1.23,6.1,4.53,6.77,13.4,< 5.00,< 5.00
Cc1ccc(S(=O)(=O)Cc2nc(-c3ccc(C(=O)NCc4cccnc4)cc3)oc2C)cc1,5.08,-6.5,-22.3,-11.9,2.23,9.95,6.71,18.9,19,26.9,< 5.00,< 5.00
Cc1ccc2nc(CN(CCN(Cc3nc4ccc(C)cc4[nH]3)Cc3nc4ccc(C)cc4[nH]3)Cc3nc4ccc(C)cc4[nH]3)[nH]c2c1,0.589,-11.3,-3.97,0.541,76.8,6.37,14.6,2.85,20.1,64.1,5.19,5.13
Cc1nc(-c2nc(-c3ccc(OC(F)(F)F)cc3)no2)nn1Cc1cccc(N2CCC(S(C)(=O)=O)CC2)c1,1.35,25,26.2,29.9,45.9,13.9,17.5,21.8,14.5,23.9,< 5.00,< 5.00
N#Cc1c(O)c2c(-c3ccc(-c4ccccc4O)cc3)csc2[nH]c1=O,7.25,0.475,5.93,6.59,21.8,-9.79,-10.7,-8.84,-17.7,3.16,< 5.00,< 5.00
NCC(=O)Nc1ccc(-n2nc(C(F)(F)F)cc2-c2ccc3c(ccc4ccccc43)c2)cc1,-0.655,3.58,10.6,45.3,77,8.04,10.5,9.27,67,74.1,5.59,5.82
Nc1nonc1C(=Nc1ccc(F)c(Cl)c1)NO,11.1,13.3,16.9,23.6,36.3,10.4,19,-4.25,11,9.01,< 5.00,< 5.00
O=C(O)c1c[nH]c2cc(Cl)c(-c3ccc(C4(O)CCC4)cc3)cc12,-7.04,0.458,-9.68,0.998,72.2,-1.55,-12.5,-12.9,-5.3,7.54,5.40,< 5.00
O=C(Oc1cc(S(=O)(=O)c2ccccc2)ccc1[N+](=O)[O-])c1ccc(Cl)cc1,13.8,11.7,15.7,20,-32.5,-2.81,-4.51,-7.2,-8.31,16.7,< 5.00,< 5.00
O=C1CC(c2c[nH]c3ccc(F)cc23)C(=O)N1 (stereo not drawn),7.19,3.94,6.53,3.06,34,15.5,-12.9,-15.6,-1.97,11.6,< 5.00,< 5.00
O=C1NC(=O)/C(=C/c2ccc3nccc(-c4ccncc4)c3c2)S1,-12,-22.4,10.1,64.1,99.4,1.82,-12,5.41,56.4,75.1,5.92,5.69
